Results published in patent publication US11881286B2, “CD8+ t cell based immunosuppressive tumor microenvironment detection method” (GENENTECH, INC., priority 2019, dated 2024).

Experiments:
[1] = system: OAW42; assay: Surface MHC-I (HLA-ABC) expression by flow cytometry, OAW42; type: cell-based, human; details: 96 h
Experimental: (§1) SK-OV-3 and OVCA-420 (MHC-I^high), and OAW42 and PA-1 (MHC-I^low) ovarian cancer lines were cultured in complete culture media (RPMI-1640+10% FBS). The cells were plated at 12,500-100,000 cells/well in 6-well tissue culture plate and complete culture media. After 24 hours, the cells were starved overnight in DMEM high glucose medium without FBS. Next, the starving media was replaced with culture media only (DMEM+2% FBS), 10 ng/mL rhTGFβ1 (Cat #PHG9204, Thermo Fisher, CA), 10 ng/mL rhTGFβ1+10 μM Galunisertib (Cat #S2230, SelleckChem, TX) or 5 ng/mL recombinant IFNγ (Cat #554617, BD Biosciences, CA) for 96 h at 37° C. Cells were then stained and analysed by flow cytometry. The “percentage of untreated” was calculated using this formula: [Geo Mean Fluorescence Intensity (IFNγ-treated cells)/Geo Mean Fluorescence Intensity (untreated cells)]×100. […] Media was half-replenished with fresh 5-Aza 48 hours after treatment to keep concentration consistent. Before staining, Fc receptors were blocked for 10 min at room temperature using FcR blocking reagent human (Cat #130-059-901, Miltenyi Biotec, CA). Cells were stained during the blocking step with the LIVE/DEAD™ Fixable Near-IR Dead Cell (Cat #L10119, Invitrogen, CA). […]

[2] = system: PA-1; assay: Surface MHC-I (HLA-ABC) expression by flow cytometry, PA-1; type: cell-based, human; details: 96 h
Experimental: as §1

[3] = system: SK-OV-3; assay: Surface MHC-I (HLA-ABC) expression by flow cytometry, SK-OV-3; type: cell-based, human; details: 96 h
Experimental: SK-OV-3 and OVCA-420 (MHC-I^high), and OAW42 and PA-1 (MHC-I^low) ovarian cancer lines were cultured in complete culture media (RPMI-1640+10% FBS). The cells were plated at 12,500-100,000 cells/well in 6-well tissue culture plate and complete culture media. After 24 hours, the cells were starved overnight in DMEM high glucose medium without FBS. Next, the starving media was replaced with culture media only (DMEM+2% FBS), 10 ng/mL rhTGFβ1 (Cat #PHG9204, Thermo Fisher, CA), 10 ng/mL rhTGFβ1+10 μM Galunisertib (Cat #S2230, SelleckChem, TX) or 5 ng/mL recombinant IFNγ (Cat #554617, BD Biosciences, CA) for 96 h at 37° C. Cells were then stained and analysed by flow cytometry. The “percentage of untreated” was calculated using this formula: [Geo Mean Fluorescence Intensity (IFNγ-treated cells)/Geo Mean Fluorescence Intensity (untreated cells)]×100. In order to see if MHC-I expression can be regulated by methylation, two MHC-I^low lines OAW42 and PA-1 were plated at 250,000-500,000 cells/dish in 10-cm dish and serum starved as described above for TGFβ1 treatment. 10 μM and 1 μM 5-Aza-2′-deoxycytidine (5-Aza, Cat #A2385, Sigma-Aldrich) demethylating agent in culture media was used to treat OAW42 and PA-1, respectively, for 96 h prior to FACS analysis. Media was half-replenished with fresh 5-Aza 48 hours after treatment to keep concentration consistent. […]

[4] = system: OVCA-420; assay: Surface MHC-I (HLA-ABC) expression by flow cytometry, OVCA-420; type: cell-based, human
Experimental: SK-OV-3 and OVCA-420 (MHC-I^high), and OAW42 and PA-1 (MHC-I^low) ovarian cancer lines were cultured in complete culture media (RPMI-1640+10% FBS). The cells were plated at 12,500-100,000 cells/well in 6-well tissue culture plate and complete culture media. After 24 hours, the cells were starved overnight in DMEM high glucose medium without FBS. Next, the starving media was replaced with culture media only (DMEM+2% FBS), 10 ng/mL rhTGFβ1 (Cat #PHG9204, Thermo Fisher, CA), 10 ng/mL rhTGFβ1+10 μM Galunisertib (Cat #S2230, SelleckChem, TX) or 5 ng/mL recombinant IFNγ (Cat #554617, BD Biosciences, CA) for 96 h at 37° C. Cells were then stained and analysed by flow cytometry. The “percentage of untreated” was calculated using this formula: [Geo Mean Fluorescence Intensity (IFNγ-treated cells)/Geo Mean Fluorescence Intensity (untreated cells)]×100. In order to see if MHC-I expression can be regulated by methylation, two MHC-I^low lines OAW42 and PA-1 were plated at 250,000-500,000 cells/dish in 10-cm dish and serum starved as described above for TGFβ1 treatment. 10 μM and 1 μM 5-Aza-2′-deoxycytidine (5-Aza, Cat #A2385, Sigma-Aldrich) demethylating agent in culture media was used to treat OAW42 and PA-1, respectively, for 96 h prior to FACS analysis. Media was half-replenished with fresh 5-Aza 48 hours after treatment to keep concentration consistent.
Before staining, Fc receptors were blocked for 10 min at room temperature using FcR blocking reagent human (Cat #130-059-901, Miltenyi Biotec, CA). Cells were stained during the blocking step with the LIVE/DEAD™ Fixable Near-IR Dead Cell (Cat #L10119, Invitrogen, CA). Then, cells were incubated at room temperature for 15 min with anti-human HLA-ABC-PE (Cat #560168, BD Biosciences, CA) or isotype control mouse IgG1κ-PE (Cat #556650, BD Biosciences) antibodies, washed and samples were acquired on BD LSRFortessa™ flow cytometer.

[5] = system: SMAD2/3; assay: p-SMAD2/3 Western blot assay in PHBF fibroblasts; type: cell-based, human; details: 30 min
Experimental: PHBF cells were plated at 100,000 cells/well in a 24-well cell culture plate overnight, serum starved for 24 h and then cultured in serum-free DMEM with indicated concentration of […] with or without Galunisertib for 30 min. Cells were lysed in protein lysis buffer containing T-PER tissue protein extraction reagent (ThermoFisher, #78510), cOmplete™ Protease Inhibitor Cocktail (Sigma-Aldrich, #11697498001) and PhosSTOP™ phosphatase inhibitor cocktails (Sigma-Aldrich, #4906845001). Total protein was diluted and normalized to 0.5 μg/μL with 4×LDS Sample Buffer (ThermoFisher, #84788). 10 ug of total protein was loaded into each well of a NuPAGE 4-12% Bis-Tris Midi Gel (Invitrogen), followed by protein transfer from gel to the membrane using Trans-Blot Turbo (Bio-Rad). […] Briefly, the membrane was blocked for 1 h, incubated with Phospho-Smad2 antibodies overnight at 4° C. ([…], 1:200, Cell Signaling #3108, clone138D4), washed and incubated with secondary antibodies goat anti-rabbit. To analyse the total Smad2/3, the membrane was stripped and then incubated with Smad2/3 antibodies (1:1000, Cell Signaling #8685).

[6] = system: primary human fibroblasts; assay: Proliferation assay (CellTiter-Glo) of primary human fibroblasts; type: cell-based; details: ovary, bladder and colon fibroblasts, 72 h
Experimental: (§2) The primary normal fibroblast PHBF (Bladder), CCD-18Co (Colon) and HOF (Ovary) were serum-starved overnight before treatment with media only (untreated), 10 ng/mL rhTGFβ1 or 10 ng/mL rhTGFβ1+10 μM Galunisertib for 24 hours and total RNA was extracted for RNA-seq analysis. To detect IL-6 protein in the supernatant, cells were treated for 48 hours with rhTGFβ1. After the 48 h, the supernatant was collected and analysed by Luminex using the Millipore kit. For the proliferation assay, PHBF, CCD-18Co, HOF were plated at 3,000 cells/well in a 96-well culture flat bottom plate for immunofluorescent assays (Corning, #3917) overnight. Cells were then cultured for 72 hours in DMEM high glucose+1% FBS with indicated concentration of TGFβ1 with or without Galunisertib. Next, CellTiter-Glo® reagents (Promega, G7570) were added to each well and luminescence signal was read with a microplate reader.

[7] = system: primary human fibroblasts; assay: RNA-seq transcriptional response of primary human fibroblasts; type: cell-based; details: 10 ng/mL rhTGFβ1, 24 h
Experimental: as §2

[8] = system: IL-6; assay: IL-6 protein in fibroblast supernatant by Luminex; type: cell-based, human; details: rhTGFβ1, 48 h
Experimental: as §2

How did the “expression of MHC class I protein at the tumor cell surface” value ([1]; OAW42, 10 μM 5-Aza, vs DMSO) turn out when Nc1ncn([C@H]2C[C@H](O)[C@@H](CO)O2)c(=O)n1 [5-aza-2′-deoxycytidine] was run?
The value was “significantly induce”.

What about the “expression of MHC class I protein at the tumor cell surface” value ([2]; PA-1, 1 μM 5-Aza, vs DMSO) of the same molecule?
Its value is “significantly induce”.

For Cc1cccc(-c2nn3c(c2-c2ccnc4ccc(C(N)=O)cc24)CCC3)n1 [Galunisertib], which “MHC class I expression in the presence of Galunisertib” value ([3]; SK-OV-3, 10 ng/mL rhTGFβ1+10 μM Galunisertib) is on record?
The value was “restored to the untreated level”.

And the “MHC class I expression in the presence of Galunisertib” value ([4]; OVCA-420, 10 ng/mL rhTGFβ1+10 μM Galunisertib, 96 h)?
The value was “restored to the untreated level”.

What about the “TGFβ pathway (SMAD2/3 phosphorylation) with Galunisertib treatment” value ([5]; TGFβ1 with Galunisertib) of the same molecule?
Its value is “pathway inhibition”.

Which results are given for “TGFβ1: recombinant human TGFβ1 (rhTGFβ1, Cat #PHG9204, Thermo Fisher)”?
decrease of surface expression of MHC-I compared to the untreated cells ([4]; OVCA-420, 10 ng/mL rhTGFβ1, 96 h, flow cytometry): 40.45±14.2%; phosphorylation level of SMAD2/3 ([5]; TGFβ dose-dependent): increased; proliferation of primary human fibroblasts [6]: promoted proliferation; expression of immune-modulatory molecules (IL11, TNFAIP6) in fibroblast cells [7]: specifically induced; mRNA expression of IL6 in human fibroblasts [7]: specifically induced; transcriptional program induced in human primary fibroblasts (ECM-related genes, reactive stroma markers) ([7]; ovary, bladder, colon fibroblasts): common 77-gene transcriptional program specifically induced; IL-6 protein secretion level in the supernatant [8]: dramatically increased

B1: IFNγ: recombinant IFNγ, a cytokine well established for inducing MHC-I expression (protein, UniProt P01579 24-161, looked up)
Interferon gamma: QDPYVKEAENLKKYFNAGHSDVADNGTLFLGILKNWKEESDRKIMQSQIVSFYFKLFKNFKDDQSIQKSVETIKEDMNVKFFNSNKKKRDDFEKLTNYSVTDLNVQRKAIHELIQVMAELSPAAKTGKRKRSQMLFRG
How did the “MHC class I protein expression on the tumor cell surface” value (“MHC class I protein expression” for short) ([3]; SK-OV-3 (MHC-I high), 5 ng/mL IFNγ) turn out when B1 was run?
Its value is “increased”.

What about the “MHC class I protein expression” value ([4]; OVCA-420 (MHC-I high), 5 ng/mL IFNγ, 96 h) of the same molecule?
The value was “increased”.

What about the “MHC class I protein expression” value ([1]; OAW42 (MHC-I low), 5 ng/mL IFNγ) of the same molecule?
Its value is “increased”.

And the “MHC class I protein expression” value ([2]; PA-1 (MHC-I low), 5 ng/mL IFNγ)?
The value was “increased”.
